According to patent US20230233569A1 (Revolution Medicines, Inc., priority 2020, published 2023):
Read-outs that look alike come from different tables or passages of the source.

Key:
AsPC-1 (K-Ras G12D) [1] = experiment: Potency assay: pERK; format: cell-based; conditions: Homo sapiens
AsPC-1 (K-Ras G12D) [2] = experiment: CellTiter-Glo cell viability assay; format: cell-based; conditions: Homo sapiens, ASPC1, 120 h
Protocol: Determination of Cell Viability in RAS Mutant Cancer Cell Lines
Protocol: CellTiter-Glo® Cell Viability Assay
Note—The following protocol describes a procedure for monitoring cell viability of K-Ras mutant cancer cell lines in response to a compound of the invention. Other RAS isoforms may be employed, though the number of cells to be seeded will vary based on cell line used.
Test compounds (132.5 nL) were directly dispensed into the assay plates containing cells. […] On day 5, assay plates and their contents were equilibrated to room temperature for approximately 30 minutes. […] Luminescence was measured using the PerkinElmer Enspire. Data were normalized by the following: (Sample signal/Avg. DMSO)*100. The data were fit using a four-parameter logistic fit.

KRAS G12D = KRAS G12D (Homo sapiens, UniProt P01116+P62937, G12D); experiment: Ras-Raf disruption / FRET / MOA assay (BRAF RBD); format: biochemical; conditions: KRAS G12D FRET data IC50, Ras-Raf disruption, with Cyclophilin A
Chain of KRAS G12D (P01116 1-169 isoform P01116-2 G12D limits assumed): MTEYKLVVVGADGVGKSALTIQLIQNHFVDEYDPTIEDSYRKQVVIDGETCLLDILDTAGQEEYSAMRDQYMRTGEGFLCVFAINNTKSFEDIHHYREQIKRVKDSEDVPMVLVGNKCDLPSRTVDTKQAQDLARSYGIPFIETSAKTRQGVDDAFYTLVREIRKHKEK
Chain of KRAS G12D (P62937 whole entry): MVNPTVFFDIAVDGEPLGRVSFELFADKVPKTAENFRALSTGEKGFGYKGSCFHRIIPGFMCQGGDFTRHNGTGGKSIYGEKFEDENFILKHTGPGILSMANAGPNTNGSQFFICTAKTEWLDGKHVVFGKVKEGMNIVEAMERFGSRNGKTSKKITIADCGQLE
Outline: (§1)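 TR-FRET in 25 mM HEPES pH 7.3, 100 mM NaCl, 5 mM MgCl2, 0.1% BSA, 0.002% Tween20 with 25 μM Cyclophilin A, 12.5 nM His6-Ras-GMPPNP, 50 nM GST-BRAF RBD; compound 10-point 3-fold series from 30 μM. After 3 h at 25 °C, Eu anti-His/APC anti-GST added for 1.5 h; IC50 from ratio decrease versus DMSO.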

KRAS G12S = KRAS G12S (Homo sapiens, UniProt P01116+P62937, G12S); experiment: Ras-Raf disruption / FRET / MOA assay (BRAF RBD); format: biochemical; conditions: KRAS G12S FRET data IC50, Ras-Raf disruption, with Cyclophilin A
Chain of KRAS G12S (P01116 1-169 isoform P01116-2 G12S limits assumed): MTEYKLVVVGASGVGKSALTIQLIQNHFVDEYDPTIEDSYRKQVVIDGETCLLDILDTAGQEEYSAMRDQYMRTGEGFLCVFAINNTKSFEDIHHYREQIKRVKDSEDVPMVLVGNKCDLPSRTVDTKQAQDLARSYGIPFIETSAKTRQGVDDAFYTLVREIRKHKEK
Chain of KRAS G12S (P62937 whole entry): as the sequence (P62937 whole entry) above
Outline: as §1

KRAS G12V = KRAS G12V (Homo sapiens, UniProt P01116+P62937, G12V); experiment: Ras-Raf disruption / FRET / MOA assay (BRAF RBD); format: biochemical; conditions: KRAS G12V FRET data IC50, Ras-Raf disruption, with Cyclophilin A
Chain of KRAS G12V (P01116 1-169 isoform P01116-2 G12V limits assumed): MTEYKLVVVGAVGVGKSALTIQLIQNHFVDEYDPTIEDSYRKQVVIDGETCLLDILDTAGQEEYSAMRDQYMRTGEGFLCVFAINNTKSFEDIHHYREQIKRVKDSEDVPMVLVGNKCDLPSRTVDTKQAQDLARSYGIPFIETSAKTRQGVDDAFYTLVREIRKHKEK
Chain of KRAS G12V (P62937 whole entry): as the sequence (P62937 whole entry) above
Outline: as §1

KRAS G13C = KRAS G13C (Homo sapiens, UniProt P01116+P62937, G13C); experiment: Ras-Raf disruption / FRET / MOA assay (BRAF RBD); format: biochemical; conditions: KRAS G13C FRET data IC50, Ras-Raf disruption, with Cyclophilin A
Chain of KRAS G13C (P01116 1-169 isoform P01116-2 G13C limits assumed): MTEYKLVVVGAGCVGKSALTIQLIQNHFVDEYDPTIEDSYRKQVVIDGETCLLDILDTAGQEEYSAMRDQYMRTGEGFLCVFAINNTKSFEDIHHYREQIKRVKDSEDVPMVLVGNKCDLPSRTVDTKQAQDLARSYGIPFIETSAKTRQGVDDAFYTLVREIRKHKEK
Chain of KRAS G13C (P62937 whole entry): as the sequence (P62937 whole entry) above
Outline: as §1

KRAS G13D = KRAS G13D (Homo sapiens, UniProt P01116+P62937, G13D); experiment: Ras-Raf disruption / FRET / MOA assay (BRAF RBD); format: biochemical; conditions: KRAS G13D FRET data IC50, Ras-Raf disruption, with Cyclophilin A
Chain of KRAS G13D (P01116 1-169 isoform P01116-2 G13D limits assumed): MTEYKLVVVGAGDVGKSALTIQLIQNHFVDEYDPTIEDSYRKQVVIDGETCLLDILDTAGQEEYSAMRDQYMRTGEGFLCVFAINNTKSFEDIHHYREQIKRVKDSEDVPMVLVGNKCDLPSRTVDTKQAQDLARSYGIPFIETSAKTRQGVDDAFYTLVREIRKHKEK
Chain of KRAS G13D (P62937 whole entry): as the sequence (P62937 whole entry) above
Outline: as §1

KRAS WT = KRAS WT (Homo sapiens, UniProt P01116+P62937); experiment: Ras-Raf disruption / FRET / MOA assay (BRAF RBD); format: biochemical; conditions: KRAS WT FRET data IC50, Ras-Raf disruption, with Cyclophilin A
Chain of KRAS WT (P01116 1-169 isoform P01116-2 limits assumed): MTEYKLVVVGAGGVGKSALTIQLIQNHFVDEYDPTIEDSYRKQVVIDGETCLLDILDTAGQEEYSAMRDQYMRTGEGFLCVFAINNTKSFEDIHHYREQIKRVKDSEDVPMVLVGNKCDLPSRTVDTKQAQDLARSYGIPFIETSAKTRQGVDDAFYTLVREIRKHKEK
Chain of KRAS WT (P62937 whole entry): as the sequence (P62937 whole entry) above
Outline: as §1

NRAS G12C = NRAS G12C (Homo sapiens, UniProt P01111+P62937, G12C); experiment: Ras-Raf disruption / FRET / MOA assay (BRAF RBD); format: biochemical; conditions: NRAS G12C FRET data IC50, NRAS G12C
Chain of NRAS G12C (P01111 whole entry G12C): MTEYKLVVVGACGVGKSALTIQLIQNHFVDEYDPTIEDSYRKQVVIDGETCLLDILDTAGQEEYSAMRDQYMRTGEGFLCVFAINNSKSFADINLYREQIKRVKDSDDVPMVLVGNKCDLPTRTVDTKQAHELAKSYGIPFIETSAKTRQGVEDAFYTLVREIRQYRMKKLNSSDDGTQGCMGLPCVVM
Chain of NRAS G12C (P62937 whole entry): as the sequence (P62937 whole entry) above
Outline: as §1

KRAS G12C = KRAS G12C (Homo sapiens, UniProt P01116+P62937, G12C); experiment: Ras-Raf disruption / FRET / MOA assay (BRAF RBD); format: biochemical; conditions: KRAS G12C FRET data IC50, Ras-Raf disruption, with Cyclophilin A
Chain of KRAS G12C (P01116 1-169 isoform P01116-2 G12C limits assumed): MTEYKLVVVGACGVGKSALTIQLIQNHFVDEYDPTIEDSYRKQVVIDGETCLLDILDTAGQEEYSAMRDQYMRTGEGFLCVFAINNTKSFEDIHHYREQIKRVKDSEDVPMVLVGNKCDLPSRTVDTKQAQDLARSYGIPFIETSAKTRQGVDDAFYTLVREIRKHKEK
Chain of KRAS G12C (P62937 whole entry): as the sequence (P62937 whole entry) above
Outline: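 His6-K-Ras G12C-GMPPNP (12.5 nM), GST-BRAF RBD (50 nM) and tagless Cyclophilin A (25 μM) incubated 3 h at 25 °C with compound (10-point 3-fold series from 30 μM), pH 7.3 HEPES buffer. Anti-His Eu/anti-GST APC added for 1.5 h; decreased TR-FRET ratio vs DMSO gives IC50.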

KRAS Q61H = KRAS Q61H (Homo sapiens, UniProt P01116+P62937, Q61H); experiment: Ras-Raf disruption / FRET / MOA assay (BRAF RBD); format: biochemical
Chain of KRAS Q61H (P01116 1-169 isoform P01116-2 Q61H limits assumed): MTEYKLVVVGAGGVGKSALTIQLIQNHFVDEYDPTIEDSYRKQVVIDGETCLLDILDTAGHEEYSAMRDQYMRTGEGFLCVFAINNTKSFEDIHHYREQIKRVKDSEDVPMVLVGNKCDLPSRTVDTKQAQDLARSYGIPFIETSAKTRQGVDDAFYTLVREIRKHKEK
Chain of KRAS Q61H (P62937 whole entry): as the sequence (P62937 whole entry) above
Outline: as §1

NRAS Q61K = NRAS Q61K (Homo sapiens, UniProt P01111+P62937, Q61K); experiment: Ras-Raf disruption / FRET / MOA assay (BRAF RBD); format: biochemical
Chain of NRAS Q61K (P01111 whole entry Q61K): as the sequence (P01111 whole entry G12C) above, with C12G, Q61K counted along it
Chain of NRAS Q61K (P62937 whole entry): as the sequence (P62937 whole entry) above
Outline: as §1

NRAS Q61R = NRAS Q61R (Homo sapiens, UniProt P01111+P62937, Q61R); experiment: Ras-Raf disruption / FRET / MOA assay (BRAF RBD); format: biochemical
Chain of NRAS Q61R (P01111 whole entry Q61R): as the sequence (P01111 whole entry G12C) above, with C12G, Q61R counted along it
Chain of NRAS Q61R (P62937 whole entry): as the sequence (P62937 whole entry) above
Outline: as §1

NRAS WT = NRAS WT (Homo sapiens, UniProt P01111+P62937); experiment: Ras-Raf disruption / FRET / MOA assay (BRAF RBD); format: biochemical
Chain of NRAS WT (P01111 whole entry): as the sequence (P01111 whole entry G12C) above, with C12G counted along it
Chain of NRAS WT (P62937 whole entry): as the sequence (P62937 whole entry) above
Outline: as §1

[3] = read-out: AsPC-1 Cell Viability assay data IC50, K-Ras G12D, 5-day treatment

SMILES	EC50 (AsPC-1 (K-Ras G12D) [1]; ASPC1, read-out: pERK EC50) [µM]	IC50 (AsPC-1 (K-Ras G12D) [2]; [3]) [µM]	IC50 (KRAS G12D) [nM]	IC50 (KRAS G12S) [nM]	IC50 (KRAS G12V) [nM]	IC50 (KRAS G13C) [nM]	IC50 (KRAS G13D) [nM]	IC50 (KRAS WT) [nM]	IC50 (NRAS G12C) [nM]	IC50 (KRAS G12C) [nM]	EC50 (AsPC-1 (K-Ras G12D) [1]; ASPC1, AsPC-1 KRAS G12D, read-out: pERK EC50) [µM]	IC50 (AsPC-1 (K-Ras G12D) [2]; K-Ras G12D, 5-day treatment, read-out: AsPC-1 Cell Viability assay data IC50) [µM]	IC50 (KRAS Q61H) [nM]	IC50 (NRAS Q61K) [µM]	IC50 (NRAS Q61R) [µM]	IC50 (NRAS WT) [nM]
CCn1c(-c2cccnc2[C@H](C)OC)c2c3cc(ccc31)-c1cc(O)cc(c1)C[C@H](NC(=O)[C@H](C(C)C)N(C)C(=O)[C@@H](C)N(C)C(=O)[C@H]1CN1)C(=O)N1CCC[C@H](N1)C(=O)OCC(C)(C)C2 [Example 114]	< 5	1 to 10	1000 to 10000	1000 to 10000	1000 to 10000	100 to 1000	1000 to 10000	1000 to 10000	10 to 100	10 to 100						
CCn1c(-c2cccnc2[C@H](C)OC)c2c3cc(ccc31)-c1cc(O)cc(c1)C[C@H](NC(=O)[C@H](C(C)C)N(C)C(=O)CNC(=O)[C@H]1CN1)C(=O)N1CCC[C@H](N1)C(=O)OCC(C)(C)C2 [Example 140]	< 5	1 to 10	10 to 100	10 to 100	10 to 100	< 10	10 to 100	10 to 100	< 10	< 10						
CCn1c(-c2cccnc2[C@H](C)OC)c2c3cc(ccc31)-c1cc(O)cc(c1)C[C@H](NC(=O)[C@H](C(C)C)N(C)C(=O)CNC(=O)[C@@H]1CN1)C(=O)N1CCC[C@H](N1)C(=O)OCC(C)(C)C2 [Example 147]	< 5	1 to 10	100 to 1000	10 to 100	10 to 100	10 to 100	100 to 1000	10 to 100	10 to 100	10 to 100						
CCn1c(-c2cccnc2[C@H](C)OC)c2c3cc(ccc31)-c1cc(O)cc(c1)C[C@H](NC(=O)[C@H](C(C)C)N(C)C(=O)[C@H]1CCCN1C(=O)[C@@H]1CN1)C(=O)N1CCC[C@H](N1)C(=O)OCC(C)(C)C2 [Example 151]	< 5	1 to 10	100 to 1000	100 to 1000	10 to 100	100 to 1000	100 to 1000	100 to 1000	< 10	< 10						
CCn1c(-c2cccnc2[C@H](C)OC)c2c3cc(ccc31)-c1cc(O)cc(c1)C[C@H](NC(=O)[C@H](C(C)C)N(C)C(=O)[C@H]1CCCN1C(=O)[C@H]1CN1)C(=O)N1CCC[C@H](N1)C(=O)OCC(C)(C)C2 [Example 152]	< 5	1 to 10	100 to 1000	100 to 1000	100 to 1000	10 to 100	100 to 1000	100 to 1000	10 to 100	10 to 100						
CCn1c(-c2cccnc2[C@H](C)OC)c2c3cc(ccc31)-c1cc(O)cc(c1)C[C@H](NC(=O)[C@H](C(C)C)N(C)C(=O)[C@H]1CC[C@@H](C)N1C(=O)[C@@H]1CN1)C(=O)N1CCC[C@H](N1)C(=O)OCC(C)(C)C2 [Example 153]	< 5	1 to 10	100 to 1000	100 to 1000	100 to 1000	100 to 1000	100 to 1000	100 to 1000	10 to 100	10 to 100						
CCn1c(-c2cccnc2[C@H](C)OC)c2c3cc(ccc31)-c1cc(O)cc(c1)C[C@H](NC(=O)[C@H](C(C)C)N(C)C(=O)[C@H]1CC[C@@H](C)N1C(=O)[C@H]1CN1)C(=O)N1CCC[C@H](N1)C(=O)OCC(C)(C)C2 [Example 154]	< 5	1 to 10	1000 to 10000	100 to 1000	100 to 1000	100 to 1000	1000 to 10000	100 to 1000	10 to 100	10 to 100						
CCn1c(-c2cccnc2[C@H](C)OC)c2c3cc(ccc31)-c1cc(O)cc(c1)C[C@H](NC(=O)[C@H](C(C)C)N(C)C(=O)CN(C)C(=O)[C@H]1CN1CCO)C(=O)N1CCC[C@H](N1)C(=O)OCC(C)(C)C2 (some centres unmarked) [Example 161]	< 5	1 to 10	100 to 1000	10 to 100	10 to 100	10 to 100	100 to 1000	10 to 100	< 10	< 10						
CCn1c(-c2cccnc2[C@H](C)OC)c2c3cc(ccc31)-c1cc(O)cc(c1)C[C@H](NC(=O)[C@H](C(C)C)N(C)C(=O)CN(C)C(=O)[C@@H]1CN1CCO)C(=O)N1CCC[C@H](N1)C(=O)OCC(C)(C)C2 (some centres unmarked) [Example 162]	< 5	1 to 10	100 to 1000	10 to 100	10 to 100	10 to 100	10 to 100	10 to 100	< 10	< 10						
CCn1c(-c2cccnc2[C@H](C)OC)c2c3cc(ccc31)-c1cc(O)cc(c1)C[C@H](NC(=O)[C@H](C(C)C)N(C)C(=O)[C@]13C[C@H]1CCN3C(=O)[C@@H]1CN1)C(=O)N1CCC[C@H](N1)C(=O)OCC(C)(C)C2 [Example 166]			100 to 1000	100 to 1000	100 to 1000	100 to 1000	100 to 1000	100 to 1000	100 to 1000	100 to 1000	< 5	1 to 10	10 to 100	1 to 10	1 to 10	100 to 1000
